One series deals with C. albicans ATCC18804. In words: Antifungal MIC, microdilution in RPMI 1640. The series is classed as cell-based, Candida albicans. To be noted: C. albicans ATCC18804, RPMI 1640, 48 h, 37 °C, peptides 128-1 µM, triplicate. Here is the method:
(§1) The minimum inhibitory concentrations (MIC) were determined following the Clinical and Laboratory Standards Institute (CLSI) recommendations. Antibacterial and antifungal activity tests were performed using the microdilution method. For initial screening, peptides were tested against C. albicans ATCC18804, E. coli ATCC25922, and S. aureus ATCC25923. Briefly, bacterial cells in MH broth (80 μL aliquots containing 1.5 × 10^7 CFU) were incubated with synthetic peptides (serial dilution from 512 to 1 μM) dissolved in Milli-Q water. After incubation for 24 h at 37 °C, the microtiter plates were analyzed visually by addition of resazurin. For the antifungal assays, the culture medium was RPMI 1640 buffered with L-glutamine (pH 7.2), 0.165 M morpholinepropanesulfonic acid (MOPS), and 2% glucose. Cell suspensions (final concentration of 1 × 10^3–2.5 × 10^3 CFU/mL) were inoculated on a microdilution plate previously prepared with serially diluted synthetic peptides (128–1 μM). The plates were incubated for 48 h at 37 °C. Each assay was performed in triplicates. Additionally, amphotericin B and fluconazole were used as the control drugs. MIC was defined as the lowest concentration of peptide at which no growth was detected.
Background: In broth dilution the organism is exposed to a series of concentrations in liquid medium.

Series [1] concerns S. aureus ATCC25923. In words: MIC, microdilution in MH broth (initial screening). The series is classed as cell-based, Staphylococcus aureus. To be noted: 24 h, 37 °C, resazurin, triplicate. Here is the method:
as §1

In the next series the test system is E. coli ATCC25922. In words: MIC, microdilution in MH broth (initial screening). To be noted: 24 h, 37 °C, resazurin, triplicate. The series is classed as cell-based, Escherichia coli. The protocol:
as §1

In a further series the test system is human red blood cells. In words: Hemolysis assay. The series is classed as cell-based. To be noted: 1% (v/v) human erythrocytes in Tris-saline pH 7.4, 1 h, 37 °C, absorbance 405 nm, triplicate. The protocol: Peptide hemolysis assays were performed as previously described by Castro et al.. Briefly, freshly prepared human red blood cells (RBCs) were washed three times with 0.01 M Tris-HCl (pH 7.4) containing 0.15 M NaCl (Tris-saline). A suspension of 1% (v/v) erythrocytes was made with packed RBCs resuspended in Tris-saline. Peptides were dissolved in Tris-saline at an initial concentration of […] and serially diluted in the same buffer to determine the concentration that triggered 50% hemolysis (HC50). As the positive control (100% lysis), 1% (v/v) Triton X-100 solution was used. After 1 h of incubation at 37 °C, the samples were centrifuged at 3000× g for 5 min. Then, 100 µL aliquots of the supernatant were transferred to 96-well microplates, and the absorbance was determined at 405 nm. The assay was performed in triplicates.

For a further series, the system named is S. aureus SA33. The series is classed as cell-based, Staphylococcus aureus. To be noted: S. aureus SA33, sub-culture on MH agar, 99.9% death. The protocol: (§2) After confirming antibacterial activity, the peptides were tested against gram-positive and gram-negative multidrug-resistant bacteria, including strains of clinical origin. The peptides, p-BthTX-I, des-Lys^12/(p-BthTX-I)2, and Lys^13-(p-BthTX-I)2 were serially diluted (512–1 μM) in cation-adjusted BBL MH II broth (CAMHB; Becton, Dickson and Co., Sparks, MD, USA) as described by CLSI. Bacteria at 5.0 × 10^5 CFU/mL were added to the media and incubated for 24 h at 37 °C. […] Assays were performed in duplicates, and sterile broth was used as the negative control. To determine the minimal bactericidal concentration (MBC), 100 µL from each well of the MIC assay plates that inhibited bacterial growth were sub-cultured onto MH agar (MHA) plates. […] If the ratio of MBC/MIC was >4, the activity of the peptide was considered bacteriostatic, as described previously.

Series [2] deals with S. aureus ATCC25923. The series is classed as cell-based, Staphylococcus aureus. To be noted: S. aureus ATCC25923, CAMHB, 24 h, 37 °C, duplicate. Here is the method: as §2
The test system of the next series is S. aureus SA16. The series is classed as cell-based, Staphylococcus aureus. To be noted: S. aureus SA16 (MRSA). The protocol:
as §2

A further series concerns S. aureus SA90. The series is classed as cell-based, Staphylococcus aureus. To be noted: S. aureus SA90, sub-culture on MH agar, 99.9% death. The protocol: as §2
The subject of another series is S. aureus SA88. The series is classed as cell-based, Staphylococcus aureus. Here is the method:
as §2

Another series relates to E. faecium VRE16. The series is classed as cell-based, Enterococcus faecium. The protocol:
as §2

A further series has as its system E. faecium HSJRP8. The series is classed as cell-based, Enterococcus faecium. The protocol: as §2
A short description of another series: Serum stability assay. The series is classed as in vitro ADME. To be noted: 25% human male serum, 37 °C, peptide 100 µM, analytical HPLC (C18) and LC/MS, duplicate. The protocol:
Crude peptides were purified by semi-preparative HPLC on a Shimadzu system (Tokyo, Japan) using a C18 reversed phase column (10 × 250 mm, Phenomenex, Torrance, CA, USA). Solvent A contained 0.045% trifluoroacetic acid (TFA) in water. Elution was achieved using a linear gradient (5–35%) of solvent B (0.036% TFA in acetonitrile) for 120 min at 5 mL/min. The purity of the peptides was determined by analytical HPLC on a Shimadzu system using a C18 column (4.6 × 150 mm, Phenomenex, Torrance, CA, USA) with a linear gradient of solvent B (5–95%) for 30 min at 1 mL/min. Liquid chromatography-mass spectrometry (LC/MS) was performed using a C18 column (2.0 × 30 mm, Shimadzu) attached to analytical HPLC and an amaZon ion trap mass spectrometer (Bruker Daltonics) using ESI. Peptides were eluted using a linear gradient of solvent B (5–95%) for 15 min at 0.2 mL/min.
Peptide stability assays were performed in diluted serum as previously described with minor modifications. First, 2 mL of 25% human male serum was centrifuged at 3000× g for 10 min; the supernatant was collected and incubated for 15 min at 37 °C. Next, peptides were added to the serum to a final concentration of 100 µM. Then, 200 µL of samples were collected at different time points during the assays, which were performed in duplicate. Analyses were performed by LC/MS and analytical HPLC, as described above.

Another series concerns E. coli ATCC35218. The series is classed as cell-based, Escherichia coli. The protocol:
as §2

The test system of another series is E. coli CA4. The series is classed as cell-based, Escherichia coli. To be noted: E. coli CA4 (commensal), CAMHB, 24 h, 37 °C, duplicate. Here is the method:
as §2

For the next series, the system named is K. pneumoniae NDM-1. The series is classed as cell-based, Klebsiella pneumoniae. To be noted: K. pneumoniae NDM-1, sub-culture on MH agar, 99.9% death. Here is the method: as §2
A further series concerns K. pneumoniae ATCC700603. The series is classed as cell-based, Klebsiella pneumoniae. To be noted: K. pneumoniae ATCC700603 (SHV-18), CAMHB, 24 h, 37 °C. Here is the method:
as §2

Series [3] has as its system K. pneumoniae ATCCBAA1705. The series is classed as cell-based, Klebsiella pneumoniae. To be noted: K. pneumoniae ATCCBAA1705 (KPC), CAMHB, 24 h, 37 °C, duplicate. Here is the method:
as §2

The next series concerns S. epidermidis ATCC35984. The series is classed as cell-based, Staphylococcus epidermidis. Here is the method: as §2
Another series is described as follows: 25% human male serum. To be noted: 37 °C, up to 30 h.

In brackets after ≈: the same amount, converted by molar mass. Entries after “also recorded” stand apart in the source; their conditions may differ. Read-outs that look alike come from different tables or passages of the source.

Take `CC(C)C[C@H](NC(=O)[C@H](Cc1c[nH]cn1)NC(=O)[C@H](Cc1ccc(O)cc1)NC(=O)[C@H](CCCNC(=N)N)NC(=O)[C@H](Cc1ccc(O)cc1)NC(=O)[C@H](CCCCN)NC(=O)[C@@H](N)CCCCN)C(=O)N[C@@H](CCCCN)C(=O)N1CCC[C@H]1C(=O)N[C@@H](Cc1ccccc1)C(=O)N[C@@H](CSSC[C@H](NC(=O)[C@H](Cc1ccccc1)NC(=O)[C@@H]1CCCN1C(=O)[C@H](CCCCN)NC(=O)[C@H](CC(C)C)NC(=O)[C@H](Cc1c[nH]cn1)NC(=O)[C@H](Cc1ccc(O)cc1)NC(=O)[C@H](CCCNC(=N)N)NC(=O)[C@H](Cc1ccc(O)cc1)NC(=O)[C@H](CCCCN)NC(=O)[C@@H](N)CCCCN)C(=O)N[C@@H](CCCCN)C(=O)O)C(=O)N[C@@H](CCCCN)C(=O)O` [des-Lys^13-(p-BthTX-I)2]: the minimal inhibitory concentration (MIC) in the series on C. albicans ATCC18804 is recorded as greater than 128 µM; in the series on S. aureus ATCC25923 [1], 128 µM (≈ 412 µg/mL); in the series on E. coli ATCC25922, 32 µM (≈ 103 µg/mL). Further, the “HC50 (peptide concentration that produced 50% hemolysis)” value with human red blood cells is greater than 128 µM.
As for `CC(C)C[C@H](NC(=O)[C@H](Cc1c[nH]cn1)NC(=O)[C@H](Cc1ccc(O)cc1)NC(=O)[C@H](CCCNC(=N)N)NC(=O)[C@H](Cc1ccc(O)cc1)NC(=O)[C@H](CCCCN)NC(=O)[C@@H](N)CCCCN)C(=O)N[C@@H](CCCCN)C(=O)N1CCC[C@H]1C(=O)N[C@@H](Cc1ccccc1)C(=O)N[C@@H](CS)C(=O)N[C@@H](CCCCN)C(=O)N[C@@H](CCCCN)C(=O)O` [p-BthTX-I], the MBC is greater than 512 µM against S. aureus SA33; 512 µM (≈ 890 µg/mL) in the series on S. aureus SA16 (sub-culture on MH agar, 99.9% death); 512 µM (≈ 890 µg/mL) against S. aureus SA90; greater than 512 µM against S. aureus SA88 (S. aureus SA88, sub-culture on MH agar, 99.9% death); greater than 512 µM with E. faecium VRE16 (E. faecium VRE16, sub-culture on MH agar, 99.9% death); greater than 512 µM against E. faecium HSJRP8 (E. faecium HSJRP8, sub-culture on MH agar, 99.9% death). The MBC with E. coli ATCC35218 (E. coli ATCC35218, sub-culture on MH agar, 99.9% death) was greater than 512 µM; against K. pneumoniae NDM-1 it was greater than 512 µM; against S. epidermidis ATCC35984 (S. epidermidis ATCC35984, sub-culture on MH agar, 99.9% death), 512 µM (≈ 890 µg/mL). The MIC is given as greater than 512 µM in the series on S. aureus ATCC25923 [2]; 512 µM (≈ 890 µg/mL) with S. aureus SA16 (CAMHB, 24 h, 37 °C); 512 µM (≈ 890 µg/mL) against S. aureus SA88 (S. aureus SA88 (MRSA, daptomycin heteroresistant), CAMHB, 24 h, 37 °C, duplicate); 128 µM (≈ 223 µg/mL) against E. faecium VRE16 (E. faecium VRE16 (vancomycin resistant), CAMHB, 24 h, 37 °C, duplicate); 32 µM (≈ 55.7 µg/mL) in the series on E. faecium HSJRP8 (E. faecium HSJRP8 (daptomycin resistant), CAMHB, 24 h, 37 °C, duplicate); 512 µM (≈ 890 µg/mL) against E. coli ATCC35218 (E. coli ATCC35218, CAMHB, 24 h, 37 °C, duplicate). Also, the MIC was greater than 512 µM with E. coli CA4; greater than 512 µM against K. pneumoniae ATCC700603; greater than 512 µM in [3]; 128 µM (≈ 223 µg/mL) against S. epidermidis ATCC35984 (S. epidermidis ATCC35984, CAMHB, 24 h, 37 °C, duplicate). In addition, the “Incubation time after which the peptide was completely degraded in human serum” value in the series “Serum stability assay” is 30 min.
As for KKYRYHLKPFCKK [(p-BthTX-I)2], in “25% human male serum”, the cleaved bond result is “Lys12-Lys13, major, 30 min; also recorded: Cys11-Lys12, major, 30 min” and the fragment found entry is on record as “(p-BthTX-I)2 minus one Lys residue, first_seen, 5 min; also recorded: (p-BthTX-I)2 minus two Lys residues, major, 5 min; also recorded: (p-BthTX-I)2 minus three Lys residues, 20 min”.

One may read the MIC as the smallest concentration in the dilution series that meets the test's criterion for growth inhibition. The term MBC denotes the lowest tested concentration that kills the bacteria rather than only halting them.
